Experimental data reported in PubChem BioAssay AID256 (DTP/NCI, 2004).
Values joined by “and” are separate entries in the source; they are usually repeats but may differ in a detail not shown here. Identical values can stand only once. Inconclusive results and toxic doses are left out.

Test system: CD2F1 mice, L1210 leukemia ip, survival T/C
Experiment: NCI In Vivo Anticancer Drug Screen. Data for tumor model L1210 Leukemia (intraperitoneal) in CD2F1 (CDF1) mice
Settings: endpoint: mean survival time, higher = longer survival
Outline: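 Read-out first: treated-group measurement over vehicle-control measurement, expressed as a ratio. Animals bore a transplanted tumor line and were dosed with compound or vehicle.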

[1] = dose: 50.0 mg/kg/injection, schedule: Q01DX009 (ip), vehicle: saline with Tween-80
[2] = dose: 100.0 mg/kg/injection, schedule: Q01DX009 (ip), vehicle: saline with Tween-80
[3] = dose: 100.0 mg/kg/injection, schedule: Q04DX003 (ip), vehicle: saline with Tween-80
[4] = dose: 200.0 mg/kg/injection, schedule: Q04DX003 (ip), vehicle: saline with Tween-80
[5] = dose: 400.0 mg/kg/injection, schedule: Q04DX003 (ip), vehicle: saline with Tween-80
[6] = dose: 200.0 mg/kg/injection, schedule: Q01DX009 (ip), vehicle: saline with Tween-80
[7] = dose: 100.0 mg/kg/injection, schedule: Q04DX003 (ip), vehicle: saline
[8] = dose: 200.0 mg/kg/injection, schedule: Q04DX003 (ip), vehicle: saline
[9] = dose: 400.0 mg/kg/injection, schedule: Q04DX003 (ip), vehicle: saline
[10] = dose: 400.0 mg/kg/injection, schedule: Q01DX009 (ip), vehicle: saline with Tween-80

SMILES: O=c1cc2cccccc-2cc1O
- T/C (dose: 5.0 mg/kg/injection, schedule: Q01DX001 (ip), vehicle: saline): 103 % of control
- T/C (dose: 10.0 mg/kg/injection, schedule: Q01DX001 (ip), vehicle: saline): 97 % of control
- T/C (dose: 20.0 mg/kg/injection, schedule: Q01DX001 (ip), vehicle: saline): 101 % of control
- T/C (dose: 20.0 mg/kg/injection, schedule: Q04DX003 (ip), vehicle: saline with Tween-80): 97 % of control
- T/C (dose: 40.0 mg/kg/injection, schedule: Q01DX001 (ip), vehicle: saline): 103 % of control
- T/C (dose: 40.0 mg/kg/injection, schedule: Q04DX003 (ip), vehicle: saline with Tween-80): 97 % of control
- T/C (dose: 80.0 mg/kg/injection, schedule: Q01DX001 (ip), vehicle: saline): 97 % of control

SMILES: CCN(CC)C(=S)SC/C=C\CC(Cl)(Cl)Cl
- T/C (dose: 75.0 mg/kg/injection, schedule: Q04DX003 (ip), vehicle: saline): 97 % of control
- T/C (dose: 150.0 mg/kg/injection, schedule: Q04DX003 (ip), vehicle: saline): 101 % of control
- T/C (dose: 300.0 mg/kg/injection, schedule: Q04DX003 (ip), vehicle: saline): 109 % of control

SMILES: NC1=NC(c2ccc(Cl)cc2)N(c2ccc(S(N)(=O)=O)cc2)C(N)=N1 (configuration not stated)
- T/C (dose: 25.0 mg/kg/injection, schedule: Q01DX009 (ip), vehicle: saline with Tween-80): 100 % of control
- T/C [1]: 100 % of control
- T/C [2]: 96 % of control

SMILES: CCCCN(CCCC)CC(O)c1cc(-c2c(Cl)cccc2Cl)nc2c(Cl)cc(Cl)cc12 (configuration not stated)
- T/C [3]: 86 % of control
- T/C [4]: 93 % of control
- T/C [5]: 96 % of control

SMILES: O=C(O)c1c2c(nc3ccccc13)Cc1ccccc1-2
- T/C (dose: 12.5 mg/kg/injection, schedule: Q01DX009 (ip), vehicle: water): 104 % of control and 109 % of control
- T/C (dose: 25.0 mg/kg/injection, schedule: Q01DX009 (ip), vehicle: water): 103 % of control and 108 % of control
- T/C [1]: 96 % of control
- T/C (dose: 50.0 mg/kg/injection, schedule: Q01DX009 (ip), vehicle: water): 105 % of control and 110 % of control
- T/C [2]: 104 % of control
- T/C (dose: 100.0 mg/kg/injection, schedule: Q01DX009 (ip), vehicle: water): 100 % of control and 112 % of control
- T/C [3]: 98 % of control
- T/C [6]: 101 % of control
- T/C (dose: 200.0 mg/kg/injection, schedule: Q01DX009 (ip), vehicle: water): 114 % of control
- T/C [4]: 104 % of control

SMILES: O=C(N/N=C\c1c(Cl)cccc1Cl)c1ccccc1
- T/C (dose: 100.0 mg/kg/injection, schedule: Q01DX009 (ip), vehicle: Klucel (hydroxypropylcellulose) (HPC)): 94 % of control
- T/C (dose: 100.0 mg/kg/injection, schedule: Q04DX003 (ip), vehicle: Klucel (hydroxypropylcellulose) (HPC)): 100 % of control
- T/C (dose: 200.0 mg/kg/injection, schedule: Q01DX009 (ip), vehicle: Klucel (hydroxypropylcellulose) (HPC)): 96 % of control
- T/C (dose: 200.0 mg/kg/injection, schedule: Q04DX003 (ip), vehicle: Klucel (hydroxypropylcellulose) (HPC)): 100 % of control
- T/C (dose: 400.0 mg/kg/injection, schedule: Q04DX003 (ip), vehicle: Klucel (hydroxypropylcellulose) (HPC)): 96 % of control

SMILES: Cc1ccc(C(O)S(=O)(=O)O)cc1 (configuration not stated)
- T/C [3]: 119 % of control
- T/C [4]: 103 % of control
- T/C [5]: 115 % of control

SMILES: CCOC(OCC)C(=O)OCC(=O)[C@]1(O)Cc2c(O)c3c(c(O)c2[C@@H](OC2CC(N)C(O)C(C)O2)C1)C(=O)c1c(OC)cccc1C3=O (some centres not stated)
- T/C (dose: 0.13 mg/kg/injection, schedule: Q01DX009 (ip), vehicle: saline): 104 % of control
- T/C (dose: 0.25 mg/kg/injection, schedule: Q01DX009 (ip), vehicle: saline): 118 % of control and 107 % of control
- T/C (dose: 0.5 mg/kg/injection, schedule: Q01DX009 (ip), vehicle: saline): 110 % of control
- T/C (dose: 1.0 mg/kg/injection, schedule: Q01DX009 (ip), vehicle: saline): 174 % of control
- T/C (dose: 2.0 mg/kg/injection, schedule: Q01DX009 (ip), vehicle: saline): 160 % of control
- T/C (dose: 4.0 mg/kg/injection, schedule: Q01DX009 (ip), vehicle: saline): 104 % of control

SMILES: COc1ccc(N2C(N)=NC(N)=NC2(C)C)cc1
- T/C (dose: 25.0 mg/kg/injection, schedule: Q04DX002 (ip), vehicle: saline): 106 % of control
- T/C (dose: 50.0 mg/kg/injection, schedule: Q04DX002 (ip), vehicle: saline): 100 % of control

SMILES: Cc1c2cnccc2c(C)c2c1c1ccccc1n2CCNCc1ccccc1
- T/C [3]: 105 % of control
- T/C [4]: 107 % of control

SMILES: C/C(Cl)=C\CSc1ccccc1
- T/C (dose: 100.0 mg/kg/injection, schedule: Q01DX001 (ip), vehicle: saline): 100 % of control
- T/C (dose: 200.0 mg/kg/injection, schedule: Q01DX001 (ip), vehicle: saline): 100 % of control
- T/C (dose: 400.0 mg/kg/injection, schedule: Q01DX001 (ip), vehicle: saline): 101 % of control

SMILES: CS/C([S-])=N/N=C\c1ccccn1.CS/C([S-])=N/N=C\c1ccccn1.[Fe+2]
- T/C [3]: 103 % of control
- T/C [4]: 91 % of control
- T/C [5]: 91 % of control

SMILES: CCN(CC)C(=O)c1cccc(COc2ccc(N3C(N)=NC(N)=NC3(C)C)cc2Cl)c1
- T/C (dose: 0.2 mg/kg/injection, schedule: Q01DX009 (ip), vehicle: saline): 98 % of control
- T/C (dose: 0.4 mg/kg/injection, schedule: Q01DX009 (ip), vehicle: saline): 98 % of control
- T/C (dose: 0.8 mg/kg/injection, schedule: Q01DX009 (ip), vehicle: saline): 100 % of control
- T/C (dose: 1.56 mg/kg/injection, schedule: Q01DX009 (ip), vehicle: saline): 96 % of control
- T/C (dose: 3.13 mg/kg/injection, schedule: Q01DX009 (ip), vehicle: saline): 100 % of control
- T/C (dose: 6.25 mg/kg/injection, schedule: Q01DX009 (ip), vehicle: saline): 96 % of control
- T/C (dose: 12.5 mg/kg/injection, schedule: Q01DX009 (ip), vehicle: saline): 100 % of control

SMILES: CC(N)CC(C)N (configuration not stated)
- T/C (dose: 100.0 mg/kg/injection, schedule: Q04DX002 (ip), vehicle: saline): 105 % of control
- T/C (dose: 200.0 mg/kg/injection, schedule: Q04DX002 (ip), vehicle: saline): 109 % of control

SMILES: Cc1nc(N)[nH]c(=O)c1CCCN
- T/C [7]: 95 % of control
- T/C [8]: 98 % of control
- T/C [9]: 95 % of control

SMILES: CCOC(=O)c1sc(=S)[nH]c1C
- T/C [6]: 89 % of control
- T/C [10]: 87 % of control

SMILES: CC(=O)[O][Hg][O]C(C)=O
- T/C (dose: 1.25 mg/kg/injection, schedule: Q01DX009 (ip), vehicle: saline sonified): 95 % of control
- T/C (dose: 2.5 mg/kg/injection, schedule: Q01DX009 (ip), vehicle: saline sonified): 103 % of control
- T/C (dose: 5.0 mg/kg/injection, schedule: Q01DX009 (ip), vehicle: saline sonified): 90 % of control
- T/C (dose: 5.0 mg/kg/injection, schedule: Q04DX003 (ip), vehicle: saline with Tween-80): 106 % of control

SMILES: CN(C)C(=S)Nc1ccc(Cl)cc1
- T/C [3]: 98 % of control
- T/C [4]: 98 % of control
- T/C [5]: 100 % of control

SMILES: Cc1ccc(C(CS(=O)(=O)c2ccc(C)cc2)c2ccccc2)cc1 (configuration not stated)
- T/C [7]: 93 % of control
- T/C [8]: 93 % of control
- T/C [9]: 98 % of control

SMILES: NCCN.[Ni+2].[O-]c1ccccc1[O-].[O-]c1ccccc1[O-]
- T/C (dose: 0.78 mg/kg/injection, schedule: Q01DX009 (ip), vehicle: other): 96 % of control
- T/C (dose: 1.56 mg/kg/injection, schedule: Q01DX009 (ip), vehicle: other): 93 % of control
- T/C (dose: 3.13 mg/kg/injection, schedule: Q01DX009 (ip), vehicle: other): 108 % of control
- T/C (dose: 6.25 mg/kg/injection, schedule: Q01DX009 (ip), vehicle: other): 112 % of control
- T/C (dose: 12.5 mg/kg/injection, schedule: Q01DX009 (ip), vehicle: other): 98 % of control

SMILES: CCCCCCC(C(=O)OCC)P(=O)(OCC)OCC (configuration not stated)
- T/C (dose: 18.75 mg/kg/injection, schedule: Q01DX009 (ip), vehicle: saline with Tween-80): 98 % of control
- T/C (dose: 37.5 mg/kg/injection, schedule: Q01DX009 (ip), vehicle: saline with Tween-80): 96 % of control
- T/C (dose: 75.0 mg/kg/injection, schedule: Q01DX009 (ip), vehicle: saline with Tween-80): 96 % of control
- T/C (dose: 75.0 mg/kg/injection, schedule: Q04DX003 (ip), vehicle: saline with Tween-80): 95 % of control

SMILES: O=[N+]([O-])c1ccc2nc3ccccc3cc2c1
- T/C [3]: 92 % of control
- T/C [4]: 92 % of control
- T/C [5]: 91 % of control

SMILES: CSC(=S)N(C)N
- T/C [2]: 104 % of control
- T/C [3]: 102 % of control
- T/C [6]: 103 % of control
- T/C [4]: 100 % of control
- T/C [10]: 104 % of control
- T/C [5]: 102 % of control

SMILES: CO[C@@]12[C@H](COC(N)=O)C3=C(C(=O)C(C)=C(NCCO)C3=O)N1C[C@@H]1N[C@@H]12
- T/C (dose: 10.2 mg/kg/injection, schedule: Q01DX001 (ip), vehicle: saline): 96 % of control
- T/C (dose: 15.5 mg/kg/injection, schedule: Q01DX001 (ip), vehicle: saline): 96 % of control
- T/C (dose: 23.2 mg/kg/injection, schedule: Q01DX001 (ip), vehicle: saline): 112 % of control

SMILES: COc1ccc(NC(=O)C2C3C=CC(C3)C2C(=O)O)cc1 (configuration not stated)
- T/C [3]: 98 % of control
- T/C [4]: 98 % of control
